Test results as given in patent US4471116A, “Substituted (10H-phenothiazin-10-L)-propyl-1-piperazines” (Hoffmann-La Roche Inc., priority 1982, dated 1984).
Where two headings read alike, the source gives them in different places.

Key:
[1] = system: Dopamine Turnover-Brain Limbic and Remainder; assay: Dopamine Turnover-Brain, Limbic and Remainder; type: in vivo; conditions: Rat
[2] = system: Dopamine Turnover-Brain Caudate; assay: Dopamine Turnover-Brain, Caudate; type: in vivo; conditions: Rat
[3] = system: Confinement Motor Activity; assay: Confinement Motor Activity; type: in vivo; conditions: Rat, PO, read-out: Confinement Motor Activity DD50
[4] = system: Prolactin Secretion; assay: Prolactin Secretion (in-vitro); type: cell-based; conditions: Rat, read-out: Prolactin Secretion ID50
[5] = system: Apomorphine Induced Emesis; assay: Apomorphine Induced Emesis antagonism (Dogs); type: in vivo, dog; conditions: for ED50: Canis lupus familiaris, Dog, SC, read-out: Anti-Apomorphine Emesis ED50; for Apomorphine Induced Emesis % Antagonism: Dogs, 5 mg/kg, subcutaneous
[6] = system: avoidance behavior; assay: Discrete Avoidance - Rats (avoidance block / escape block); type: in vivo, rat; conditions: for Discrete Avoidance, % Block: Rats, 40 mg/kg, oral; for duration of neuroleptic effect (in words): discrete avoidance procedure
From the text: For example, by one procedure, trained rats are placed in experimental chambers equipped with a response lever, a steel grid floor for delivery of electric shock and a loudspeaker for presentation of auditory stimuli. […] The rats can terminate a trial at any point by depression of the response lever. A response during the initial fifteen-second warning tone ends the trial before shock delivery and is considered an avoidance response, while a response occurring during shock delivery is an escape response. Trials are presented every two minutes during a one-hour test session (30 trials per session). […] Compounds are administered to a minimum of three to four rats at each dose level over a range of doses. Rats receive vehicle alone, during control sessions prior to drug administration. Each rat is tested daily or weekly, after a single drug administration, until avoidance behavior returns to pre-drug baseline levels. The session is divided into three consecutive twenty minute (ten trial) segments. Response counts are summed over all subjects at a given dose within each segment. […] This number is expressed as a percentage of the total trials within the segment. […] The lowest dose which produced a 20% block of escape responding (EBD 20) is read from a graphic dose-effect plot. In obtaining these values, percent effect is plotted against the log dose.

[7] = system: Continuous Avoidance; assay: Continuous Avoidance (Squirrel Monkeys); type: in vivo, squirrel monkey; conditions: for minimal effective dose: Primates, Squirrel Monkey, PO, read-out: Continuous Avoidance MED Shocks; for Continuous Avoidance, % Decrease of Responding: Squirrel Monkeys, 5 mg/kg, oral
[8] = system: Amphetamine Induced Rotation; assay: Amphetamine Induced Rotation antagonism (S. Nigra Lesioned Rats) / Rotation Antagonism; type: in vivo, rat; conditions: for ED50: Rat, PO; for Amphetamine Induced Rotation % Antagonism: S. Nigra Lesioned Rats, 40 mg/kg, oral
[9] = Acute toxicity (LD50) in mice after a single dose; conditions: mouse, in vivo; for LD50 at 168 h: 7 days
[10] = system: Serum Prolactin; assay: Serum Prolactin Levels (Rats); type: in vivo, rat; conditions: 15 mg/kg, oral
[11] = target: T1, Dopamine Adenylate Cyclase (Rattus norvegicus, UniProt P18901); assay: biochemical; conditions: in-vitro, read-out: Dopamine Adenylate Cyclase Inhibition-Limbic IC50
T1 construct: from tissue; host or cells: limbic brain tissue
T1 sequence (P18901 whole entry): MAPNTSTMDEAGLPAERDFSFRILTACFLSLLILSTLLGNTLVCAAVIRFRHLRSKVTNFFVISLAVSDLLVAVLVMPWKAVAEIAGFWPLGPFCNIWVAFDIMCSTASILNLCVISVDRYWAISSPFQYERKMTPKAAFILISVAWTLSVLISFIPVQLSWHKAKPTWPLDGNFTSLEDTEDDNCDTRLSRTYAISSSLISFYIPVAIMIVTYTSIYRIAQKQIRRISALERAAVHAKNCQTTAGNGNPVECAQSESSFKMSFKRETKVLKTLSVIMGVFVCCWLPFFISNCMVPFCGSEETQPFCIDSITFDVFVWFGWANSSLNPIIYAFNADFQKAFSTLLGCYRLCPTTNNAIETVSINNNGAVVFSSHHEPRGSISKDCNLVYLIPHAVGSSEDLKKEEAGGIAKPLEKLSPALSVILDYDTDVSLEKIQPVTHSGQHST

[12] = system: Continuous Avoidance; assay: Continuous Avoidance, % Decrease of Responding (Rats); type: in vivo, rat; conditions: 40 mg/kg, oral
[13] = system: revertant colonies; assay: Ames procedure (mutagenicity)
[14] = system: Pole-Climb Avoidance; assay: Pole-Climb Avoidance, % Block; type: in vivo, rat; conditions: Rats, 40 mg/kg, oral
[15] = target: T2, 3H--Spiroperidol Binding-Caudate (Rattus norvegicus, UniProt P61169); assay: biochemical
T2 construct: from tissue; host or cells: caudate (brain)
T2 sequence (P61169 whole entry): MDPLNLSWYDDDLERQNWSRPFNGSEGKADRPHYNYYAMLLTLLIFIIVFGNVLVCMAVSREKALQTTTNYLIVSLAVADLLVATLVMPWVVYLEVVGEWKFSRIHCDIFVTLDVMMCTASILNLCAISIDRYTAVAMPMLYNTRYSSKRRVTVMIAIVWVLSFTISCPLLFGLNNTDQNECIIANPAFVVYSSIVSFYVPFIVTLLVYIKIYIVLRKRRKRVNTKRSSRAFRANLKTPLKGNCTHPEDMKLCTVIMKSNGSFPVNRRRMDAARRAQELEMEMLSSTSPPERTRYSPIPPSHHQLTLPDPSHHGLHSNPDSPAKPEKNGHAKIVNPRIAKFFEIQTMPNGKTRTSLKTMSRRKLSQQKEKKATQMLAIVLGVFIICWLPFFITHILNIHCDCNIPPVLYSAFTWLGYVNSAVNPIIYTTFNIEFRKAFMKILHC

## CN(C)CCCN1c2ccccc2Sc2ccc(Cl)cc21 [Chlorpromazine, chlorpromazine, reference compound]
[1]; 10 mg/kg IP, 1 Hour Post-Drug
  Dopamine Turnover-Brain, Limbic and Remainder: Signif. .uparw.
[2]; 10 mg/kg IP, 1 Hour Post-Drug
  Dopamine Turnover-Brain, Caudate: Signif. .uparw.
[3]; 1 Hour Post-Drug
  ED50: 4.6 mg/kg
[4]
  IC50: 130 nM
[5]; 1 Hour Post-Drug
  ED50: 1.4 mg/kg
[6]; Rattus norvegicus, po, 1 h, read-out: Discrete Avoidance ABD50
  ED50: 5 mg/kg
[7]; 1 Hour Post-Drug
  minimal effective dose: 2 mg/kg
[8]; 1 Hour Post-Drug
  ED50: 20.5 mg/kg

## CC(C)NC[C@H](O)COc1ccc(OCCN2CCN(CCCN3c4ccccc4Sc4ccc(Cl)cc43)CC2)cc1.Cl.Cl.Cl [Compound A, (S)-1-(1-methylethylamino)-3-[4-[2-[4-[3-(2-chloro-10H-phenothiazin-10-yl)propyl]piperazine-1-yl]ethoxy]phenoxy]-2-propanol trihydrochloride]
[9]; ip
  LD50 at 24 h: 77.5 mg/kg
[9]; po
  LD50 at 168 h: 45 mg/kg
[10]; 1-4 hours
  Serum Prolactin Levels % Increase: 215%
[10]; 1 week
  Serum Prolactin Levels % Increase: 525%
[10]; 2-4 hours
  Serum Prolactin Levels % Increase: 97%
[10]; 3 weeks
  Serum Prolactin Levels % Increase: 251%
[10]; 4 weeks
  Serum Prolactin Levels % Increase: 56%
[11]
  IC50: 500 nM
[12]; 1-4 hours
  Continuous Avoidance, % Decrease of Responding: 0%
[12]; 1 week
  Continuous Avoidance, % Decrease of Responding: 97%
[12]; 2-4 hours
  Continuous Avoidance, % Decrease of Responding: 59%
[12]; 2 weeks
  Continuous Avoidance, % Decrease of Responding: 96%
[12]; 3 weeks
  Continuous Avoidance, % Decrease of Responding: 93%
[12]; 4 weeks
  Continuous Avoidance, % Decrease of Responding: 84%
[12]; 5 weeks
  Continuous Avoidance, % Decrease of Responding: 82%
[12]; 6 weeks
  Continuous Avoidance, % Decrease of Responding: 55%
[12]; 7 weeks
  Continuous Avoidance, % Decrease of Responding: 48%
[12]; 8 weeks
  Continuous Avoidance, % Decrease of Responding: 32%
[13]
  revertant colonies (Ames): increased revertant colonies at the highest concentration tested
[14]; 1-4 hours
  Pole-Climb Avoidance, % Block: 30%
[14]; 1 week
  Pole-Climb Avoidance, % Block: 50%
[14]; 2 weeks
  Pole-Climb Avoidance, % Block: 44%
[14]; 3 weeks
  Pole-Climb Avoidance, % Block: 11%
[1]; 40 mg/kg PO, 7 Days Post-Drug
  Dopamine Turnover-Brain, Limbic and Remainder: Not signif.
[2]; 40 mg/kg PO, 7 Days Post-Drug
  Dopamine Turnover-Brain, Caudate: Signif. .uparw.
[3]; 168 h, 7 Days Post-Drug
  ED50: 19.6 mg/kg
[4]
  IC50: 15 nM
[5]; 168 h, 7 Days Post-Drug
  ED50: < 5 mg/kg
[5]; 1-4 hours
  Apomorphine Induced Emesis % Antagonism: 93%
[5]; 1 week
  Apomorphine Induced Emesis % Antagonism: 100%
[5]; 2-4 hours
  Apomorphine Induced Emesis % Antagonism: 100%
[5]; 2 weeks
  Apomorphine Induced Emesis % Antagonism: 100%
[5]; 3 weeks
  Apomorphine Induced Emesis % Antagonism: 100%
[5]; 4 weeks
  Apomorphine Induced Emesis % Antagonism: 100%
[5]; 5 weeks
  Apomorphine Induced Emesis % Antagonism: 100%
[5]; 6 weeks
  Apomorphine Induced Emesis % Antagonism: 100%
[5]; 7 weeks
  Apomorphine Induced Emesis % Antagonism: 56%
[5]; 8 weeks
  Apomorphine Induced Emesis % Antagonism: 40%
[6]; 40 mg/kg po
  Duration of Sig. Activity: 8 weeks
  Time of Peak Effect: 2 to 10 days
[6]; 168 h, Rat, PO, 7 Days Post-Drug, read-out: Discrete Avoidance ABD50
  ED50: 19 mg/kg
[6]; Rat, PO, 7 Days Post-Drug
  EBD20/ABD50 Ratio: > 2.1
[6]; single administration, 1-4 hours
  Discrete Avoidance, % Block: 40%
[6]; 1 week
  Discrete Avoidance, % Block: 84%
[6]; 2-4 hours
  Discrete Avoidance, % Block: 78%
[6]; 2 weeks
  Discrete Avoidance, % Block: 80%
[6]; 3 weeks
  Discrete Avoidance, % Block: 84%
[6]; 4 weeks
  Discrete Avoidance, % Block: 82%
[6]; 5 weeks
  Discrete Avoidance, % Block: 56%
[6]; 6 weeks
  Discrete Avoidance, % Block: 50%
[6]; 7 weeks
  Discrete Avoidance, % Block: 31%
[6]; 8 weeks
  Discrete Avoidance, % Block: 30%
[6]; Rattus norvegicus, 1 h, 40 mg/kg po, 60 min. post-drug, read-out: Percentage Block of Avoidance, 60 min. post-drug
  inhibition in vivo at 40 mg/kg: 40%
[6]; Rattus norvegicus, po, 7-10 days after administration, read-out: ABD50
  ED50: 13.5 mg/kg
[6]; Rattus norvegicus, 40 mg/kg po, 24 hrs. post-drug, read-out: Percentage Block of Avoidance, 24 hrs. post-drug
  inhibition in vivo at 40 mg/kg: 77%
[6]; Rattus norvegicus, 40 mg/kg po, at the indicated duration, read-out: Avoidance block at Duration of Sig. Activity (AB)
  inhibition in vivo at 40 mg/kg: 30%
[6]; Rattus norvegicus, 40 mg/kg po, at time of peak effect, read-out: Avoidance block at Time of Peak Effect (AB)
  inhibition in vivo at 40 mg/kg: 90%
[6]
  duration of neuroleptic effect (in words): several weeks
[6]; p.o.
  time of maximum neuroleptic activity after administration: 7 to 10 days
[15]
  IC50: 1.8 nM
[7]; 168 h, 7 Days Post-Drug
  minimal effective dose: < 5 mg/kg
[7]; 1-4 hours
  Continuous Avoidance, % Decrease of Responding: 0%
[7]; 1 week
  Continuous Avoidance, % Decrease of Responding: 35%
[7]; 2-4 hours
  Continuous Avoidance, % Decrease of Responding: 15%
[7]; 2 weeks
  Continuous Avoidance, % Decrease of Responding: 37%
[7]; 3 weeks
  Continuous Avoidance, % Decrease of Responding: 24%
[8]; 168 h, 7 Days Post-Drug
  ED50: < 15 mg/kg
[8]; 1-4 hours
  Amphetamine Induced Rotation % Antagonism: 14%
[8]; 1 week
  Amphetamine Induced Rotation % Antagonism: 97%
[8]; 2 weeks
  Amphetamine Induced Rotation % Antagonism: 95%
[8]; 3 weeks
  Amphetamine Induced Rotation % Antagonism: 87%
[8]; 4 weeks
  Amphetamine Induced Rotation % Antagonism: 87%
[8]; 5 weeks
  Amphetamine Induced Rotation % Antagonism: 62%
[8]; 6 weeks
  Amphetamine Induced Rotation % Antagonism: 28%
[8]; 7 weeks
  Amphetamine Induced Rotation % Antagonism: 4%

## CC(C)Nc1ccc(OCCN2CCN(CCCN3c4ccccc4Sc4ccc(Cl)cc43)CC2)cc1.O=C(O)/C=C\C(=O)O [Compound B, N-[4-[2-[4-[3-(2-chloro-10H-phenothiazin-10-yl)propyl]-1-piperazinyl]ethoxy]phenyl]-α-methylethaneamine (Z)-2-butenedioate]
[9]; ip
  LD50 at 168 h: 230 mg/kg
[9]; po
  LD50 at 24 h: > 1000 mg/kg
  LD50 at 168 h: 248 mg/kg
[13]
  mutogenic effects (conclusion): free of mutogenic effects
  revertant colonies (Ames): no increase in revertant colonies
[6]; 30 mg/kg po
  Duration of Sig. Activity: 3 days
  Time of Peak Effect: 0.0417 days
[6]; Rattus norvegicus, 1 h, 30 mg/kg po, 60 min. post-drug, read-out: Percentage Block of Avoidance, 60 min. post-drug
  inhibition in vivo at 30 mg/kg: 100%
[6]; Rattus norvegicus, po, 1 h, p.o., 60 minutes pretreatment, day of administration, read-out: ABD50
  ED50: 8.7 mg/kg
[6]; Rattus norvegicus, 30 mg/kg po, 24 hrs. post-drug, read-out: Percentage Block of Avoidance, 24 hrs. post-drug
  inhibition in vivo at 30 mg/kg: 70%
[6]; Rattus norvegicus, 30 mg/kg po, at the indicated duration, read-out: Avoidance block at Duration of Sig. Activity (AB)
  inhibition in vivo at 30 mg/kg: 43%
[6]; Rattus norvegicus, 30 mg/kg po, at time of peak effect, read-out: Avoidance block at Time of Peak Effect (AB)
  inhibition in vivo at 30 mg/kg: 100%
[6]
  duration of neuroleptic effect (in words): several days
[6]; p.o.
  time of maximum neuroleptic activity (in words): on the day of administration
